According to patent US6358885B1, “Substituted phenylheterocyclic herbicides” (Mississippi State University, priority 1992, dated 2002):

Key:
[1] = test system: chickweed; test: Test B preemergence/postemergence greenhouse plant response rating 0 to 10; type: in vivo, Stellaria media; details: for Plant response rating, Chickweed: 0 to 10 scale
Summary of the method: (§1)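 Test chemicals, dissolved in a non-phytotoxic solvent, were applied to soil at planting and, at the same time, over foliage of seedlings at the one to four leaf stage.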

[2] = test system: corn; test: as above; type: in vivo, Zea mays; details: for Plant response rating, Corn: 0 to 10 scale
Summary of the method: as §1

[3] = test system: crabgrass; test: as above; type: in vivo, Digitaria spp.; details: for Plant response rating, Crabgrass: 0 to 10 scale
Summary of the method: as §1

[4] = test system: morningglory; test: as above; type: in vivo, Ipomoea hederacea; details: for Plant response rating, Morningglory: 0 to 10 scale
Summary of the method: as §1

[5] = test system: rape; test: as above; type: in vivo, Brassica napus; details: for Plant response rating, Rape: 0 to 10 scale
Summary of the method: as §1

[6] = test system: sorghum; test: as above; type: in vivo, Sorghum bicolor; details: for Plant response rating, Sorghum: 0 to 10 scale
Summary of the method: as §1

[7] = test system: soybean; test: as above; type: in vivo, Glycine max; details: for Plant response rating, Soybean: 0 to 10 scale
Summary of the method: as §1

[8] = test system: wheat; test: as above; type: in vivo, Triticum aestivum; details: for Plant response rating, Wheat: 0 to 10 scale
Summary of the method: as §1

[9] = test system: wild oat; test: as above; type: in vivo, Avena fatua; details: for Plant response rating, Wild oat: 0 to 10 scale
Summary of the method: as §1

[10] = test system: purple nutsedge; test: as above; type: in vivo, Cyperus rotundus; details: for Plant response rating, Nutsedge: 0 to 10 scale
Summary of the method: as §1

[11] = test system: barley; test: Test C preemergence/postemergence greenhouse plant response rating 0 to 100; type: in vivo, Hordeum vulgare; details: for Plant response rating Barley Igri: 125 g/ha, 0 to 100 scale
Summary of the method: (§2)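 Compounds in non-phytotoxic solvent applied preemergence to sandy loam one day after planting, postemergence at the 1–4 leaf stage, or to ~2.5 cm floodwater over silt loam.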

[12] = test system: bedstraw; test: as above; type: in vivo, Galium aparine; details: for Plant response rating, Bedstraw: 125 g/ha, 0 to 100 scale
Summary of the method: as §2

[13] = test system: chickweed; test: as above; type: in vivo, Stellaria media; details: for Plant response rating, Chickweed: 125 g/ha, 0 to 100 scale
Summary of the method: as §2

[14] = test system: downy brome; test: as above; type: in vivo, Bromus tectorum; details: for Plant response rating Downy Brome: 125 g/ha, 0 to 100 scale
Summary of the method: as §2

[15] = test system: morningglory; test: as above; type: in vivo, Ipomoea hederacea; details: for Plant response rating, Morningglory: 125 g/ha, 0 to 100 scale
Summary of the method: as §2

[16] = test system: soybean; test: as above; type: in vivo, Glycine max; details: for Plant response rating, Soybean: 125 g/ha, 0 to 100 scale
Summary of the method: as §2

[17] = test system: wild buckwheat; test: as above; type: in vivo, Polygonum convolvulus; details: for Plant response rating, Wild buckwheat: 125 g/ha, 0 to 100 scale
Summary of the method: as §2

[18] = test system: umbrella sedge; test: Test C flood test plant response rating 0 to 100; type: in vivo, Cyperus difformis
Summary of the method: as §2

CCOCOc1cc(-c2nn3c(c2Cl)CCCC3)c(F)cc1Cl [Compound 59]
Plant response rating, Chickweed ([1]; POSTEMERGENCE, Rate 50 g/ha): 6
Plant response rating, Chickweed ([1]; PREEMERGENCE, Rate 50 g/ha): 4
Plant response rating (0 to 10 scale), Chickweed ([1]; PREEMERGENCE, Rate 200 g/ha): 9
Plant response rating, Chickweed ([1]; Rate 200 g/ha, POSTEMERGENCE): 8
Plant response rating, Corn ([2]; POSTEMERGENCE, Rate 50 g/ha): 4
Plant response rating, Corn ([2]; PREEMERGENCE, Rate 50 g/ha): 1
Plant response rating (0 to 10 scale), Corn ([2]; PREEMERGENCE, Rate 200 g/ha): 2
Plant response rating, Corn ([2]; Rate 200 g/ha, POSTEMERGENCE): 5
Plant response rating, Crabgrass ([3]; POSTEMERGENCE, Rate 50 g/ha): 4
Plant response rating, Crabgrass ([3]; PREEMERGENCE, Rate 50 g/ha): 5
Plant response rating (0 to 10 scale), Crabgrass ([3]; PREEMERGENCE, Rate 200 g/ha): 10
Plant response rating, Crabgrass ([3]; Rate 200 g/ha, POSTEMERGENCE): 5
Plant response rating, Morningglory ([4]; POSTEMERGENCE, Rate 50 g/ha): 8
Plant response rating, Morningglory ([4]; PREEMERGENCE, Rate 50 g/ha): 2
Plant response rating (0 to 10 scale), Morningglory ([4]; PREEMERGENCE, Rate 200 g/ha): 6
Plant response rating, Morningglory ([4]; Rate 200 g/ha, POSTEMERGENCE): 10
Plant response rating, Rape ([5]; POSTEMERGENCE, Rate 50 g/ha): 10
Plant response rating, Rape ([5]; PREEMERGENCE, Rate 50 g/ha): 5
Plant response rating (0 to 10 scale), Rape ([5]; PREEMERGENCE, Rate 200 g/ha): 10
Plant response rating, Rape ([5]; Rate 200 g/ha, POSTEMERGENCE): 10
Plant response rating, Sorghum ([6]; POSTEMERGENCE, Rate 50 g/ha): 3
Plant response rating, Sorghum ([6]; PREEMERGENCE, Rate 50 g/ha): 1
Plant response rating (0 to 10 scale), Sorghum ([6]; PREEMERGENCE, Rate 200 g/ha): 5
Plant response rating, Sorghum ([6]; Rate 200 g/ha, POSTEMERGENCE): 4
Plant response rating, Soybean ([7]; POSTEMERGENCE, Rate 50 g/ha): 8
Plant response rating, Soybean ([7]; PREEMERGENCE, Rate 50 g/ha): 0
Plant response rating (0 to 10 scale), Soybean ([7]; PREEMERGENCE, Rate 200 g/ha): 4
Plant response rating, Soybean ([7]; Rate 200 g/ha, POSTEMERGENCE): 7
Plant response rating, Wheat ([8]; POSTEMERGENCE, Rate 50 g/ha): 7
Plant response rating, Wheat ([8]; PREEMERGENCE, Rate 50 g/ha): 4
Plant response rating (0 to 10 scale), Wheat ([8]; PREEMERGENCE, Rate 200 g/ha): 4
Plant response rating, Wheat ([8]; Rate 200 g/ha, POSTEMERGENCE): 6
Plant response rating, Wild oat ([9]; POSTEMERGENCE, Rate 50 g/ha): 7
Plant response rating, Wild oat ([9]; PREEMERGENCE, Rate 50 g/ha): 2
Plant response rating (0 to 10 scale), Wild oat ([9]; PREEMERGENCE, Rate 200 g/ha): 7
Plant response rating, Wild oat ([9]; Rate 200 g/ha, POSTEMERGENCE): 7
Plant response rating, Nutsedge ([10]; POSTEMERGENCE, Rate 50 g/ha): 2
Plant response rating, Nutsedge ([10]; PREEMERGENCE, Rate 50 g/ha): 0
Plant response rating (0 to 10 scale), Nutsedge ([10]; PREEMERGENCE, Rate 200 g/ha): 0
Plant response rating, Nutsedge ([10]; Rate 200 g/ha, POSTEMERGENCE): 5
Plant response rating Barley Igri ([11]; POSTEMERGENCE): 60
Plant response rating (0 to 100), Barley Igri ([11]; POSTEMERGENCE, Rate 2 g/ha): 30
Plant response rating Barley Igri ([11]; PREEMERGENCE): 10
Plant response rating (0 to 100), Barley Igri ([11]; PREEMERGENCE, Rate 2 g/ha): 0
Plant response rating (0 to 100), Barley Igri ([11]; Rate 8 g/ha, POSTEMERGENCE): 40
Plant response rating (0 to 100), Barley Igri ([11]; Rate 8 g/ha, PREEMERGENCE): 0
Plant response rating (0 to 100), Barley Igri ([11]; Rate 31 g/ha, POSTEMERGENCE): 50
Plant response rating (0 to 100), Barley Igri ([11]; Rate 31 g/ha, PREEMERGENCE): 0
Plant response rating, Bedstraw ([12]; POSTEMERGENCE): 100
Plant response rating (0 to 100), Bedstraw ([12]; POSTEMERGENCE, Rate 2 g/ha): 50
Plant response rating, Bedstraw ([12]; PREEMERGENCE): 70
Plant response rating (0 to 100), Bedstraw ([12]; PREEMERGENCE, Rate 2 g/ha): 0
Plant response rating (0 to 100), Bedstraw ([12]; Rate 8 g/ha, POSTEMERGENCE): 75
Plant response rating (0 to 100), Bedstraw ([12]; Rate 8 g/ha, PREEMERGENCE): 0
Plant response rating (0 to 100), Bedstraw ([12]; Rate 31 g/ha, POSTEMERGENCE): 100
Plant response rating (0 to 100), Bedstraw ([12]; Rate 31 g/ha, PREEMERGENCE): 50
Plant response rating, Chickweed ([13]; POSTEMERGENCE): 90
Plant response rating (0 to 100), Chickweed ([13]; POSTEMERGENCE, Rate 2 g/ha): 20
Plant response rating, Chickweed ([13]; PREEMERGENCE): 30
Plant response rating (0 to 100), Chickweed ([13]; PREEMERGENCE, Rate 2 g/ha): 0
Plant response rating (0 to 100), Chickweed ([13]; Rate 8 g/ha, POSTEMERGENCE): 40
Plant response rating (0 to 100), Chickweed ([13]; Rate 8 g/ha, PREEMERGENCE): 0
Plant response rating (0 to 100), Chickweed ([13]; Rate 31 g/ha, POSTEMERGENCE): 70
Plant response rating (0 to 100), Chickweed ([13]; Rate 31 g/ha, PREEMERGENCE): 10
Plant response rating Downy Brome ([14]; POSTEMERGENCE): 90
Plant response rating (0 to 100), Downy Brome ([14]; POSTEMERGENCE, Rate 2 g/ha): 20
Plant response rating Downy Brome ([14]; PREEMERGENCE): 60
Plant response rating (0 to 100), Downy Brome ([14]; PREEMERGENCE, Rate 2 g/ha): 0
Plant response rating (0 to 100), Downy Brome ([14]; Rate 8 g/ha, POSTEMERGENCE): 50
Plant response rating (0 to 100), Downy Brome ([14]; Rate 8 g/ha, PREEMERGENCE): 0
Plant response rating (0 to 100), Downy Brome ([14]; Rate 31 g/ha, POSTEMERGENCE): 70
Plant response rating (0 to 100), Downy Brome ([14]; Rate 31 g/ha, PREEMERGENCE): 30
Plant response rating, Morningglory ([15]; POSTEMERGENCE): 85
Plant response rating (0 to 100), Morningglory ([15]; POSTEMERGENCE, Rate 2 g/ha): 70
Plant response rating, Morningglory ([15]; PREEMERGENCE): 10
Plant response rating (0 to 100), Morningglory ([15]; PREEMERGENCE, Rate 2 g/ha): 0
Plant response rating (0 to 100), Morningglory ([15]; Rate 8 g/ha, POSTEMERGENCE): 70
Plant response rating (0 to 100), Morningglory ([15]; Rate 8 g/ha, PREEMERGENCE): 0
Plant response rating (0 to 100), Morningglory ([15]; Rate 31 g/ha, POSTEMERGENCE): 85
Plant response rating (0 to 100), Morningglory ([15]; Rate 31 g/ha, PREEMERGENCE): 10
Plant response rating, Soybean ([16]; POSTEMERGENCE): 70
Plant response rating (0 to 100), Soybean ([16]; POSTEMERGENCE, Rate 2 g/ha): 30
Plant response rating, Soybean ([16]; PREEMERGENCE): 0
Plant response rating (0 to 100), Soybean ([16]; PREEMERGENCE, Rate 2 g/ha): 0
Plant response rating (0 to 100), Soybean ([16]; Rate 8 g/ha, POSTEMERGENCE): 50
Plant response rating (0 to 100), Soybean ([16]; Rate 8 g/ha, PREEMERGENCE): 0
Plant response rating (0 to 100), Soybean ([16]; Rate 31 g/ha, POSTEMERGENCE): 60
Plant response rating (0 to 100), Soybean ([16]; Rate 31 g/ha, PREEMERGENCE): 0
Plant response rating, Wild buckwheat ([17]; POSTEMERGENCE): 100
Plant response rating (0 to 100), Wild buckwheat ([17]; POSTEMERGENCE, Rate 2 g/ha): 100
Plant response rating, Wild buckwheat ([17]; PREEMERGENCE): 100
Plant response rating (0 to 100), Wild buckwheat ([17]; PREEMERGENCE, Rate 2 g/ha): 0
Plant response rating (0 to 100), Wild buckwheat ([17]; Rate 8 g/ha, POSTEMERGENCE): 100
Plant response rating (0 to 100), Wild buckwheat ([17]; Rate 8 g/ha, PREEMERGENCE): 0
Plant response rating (0 to 100), Wild buckwheat ([17]; Rate 31 g/ha, POSTEMERGENCE): 100
Plant response rating (0 to 100), Wild buckwheat ([17]; Rate 31 g/ha, PREEMERGENCE): 50
Plant response rating (0 to 100), Umbrella sedge ([18]; POSTEMERGENCE section, flood test, Rate 2 g/ha): 90
Plant response rating (0 to 100), Umbrella sedge ([18]; Rate 8 g/ha, under POSTEMERGENCE head (flood test species)): 0
Plant response rating (0 to 100), Umbrella sedge ([18]; Rate 31 g/ha, under POSTEMERGENCE head (flood test species)): 0
Plant response rating Umbrella sedge ([18]; flood test species listed under POSTEMERGENCE, 125 g/ha, 0 to 100 scale): 0
